The numbers were not newly measured in US7655753B2, “Conjugate” (PhotoBiotics Limited, priority 2001, dated 2010), which cites them from elsewhere.

For one data set, the system named is Bladder cancer. As to conditions: clinical PDT.
In another data set the test system is Barrett's mucosal cancer. As to conditions: clinical PDT.
Data set [1] has as its system Chest wall recurrence in breast cancer. The conditions noted are these: clinical PDT.
The test system of another data set is Oral cancer. The conditions noted are these: clinical PDT, over 5-53 months.
In data set [2] the test system is Barrett's oesophagus cancer. The conditions noted are these: clinical PDT, systemic administration.
The subject of data set [3] is Basal cell cancer of skin. As to conditions: clinical PDT, topical administration.

Turning to Hematoporphyrin derivative, in the data set on Bladder cancer, the “alive after 5 years” value is recorded as 30% alive after 5 years and the complete response was 74% complete response,.
porfimer sodium: for the setting “leading to skin photosensitivity”, the “persistence in the body” value is recorded as “weeks”. Also, in the data set with Barrett's mucosal cancer, the “conversion to normal epithelium” value was 75% conversion to and the tumour outcome was “tumours eliminated”.
Dihematoporphyrin ether: in data set [1], the complete response is recorded as 20% complete response, and the partial response is reported as 45% partial response. For the same compound, the complete response in the data set with Oral cancer is on record as 87% complete response.
For `NCC(=O)CCC(=O)O` [ALA, 5-aminolaevulanic acid], in data set [2], the High-grade dysplasia outcome was “eradicated in all patients”. In data set [3], the complete response is 90% complete response.
For `Oc1cccc(-c2c3nc(c(-c4cccc(O)c4)c4ccc([nH]4)c(-c4cccc(O)c4)c4nc(c(-c5cccc(O)c5)c5ccc2[nH]5)CC4)C=C3)c1` [Foscan, meta-tetrahydroxyphenyl chlorin], for the setting “in vivo”, the “skin photosensitivity (duration)” value is reported as “about 2 weeks”.
